From patent publication US20050070596A1, “Methods for treatment of inflammatory diseases using CT-3 or analogs thereof” (priority 2003, published 2005)

What was measured:
[1] = tested on: PBQ-induced writhing; settings: given orally at doses up to 10 mg/kg; cited from earlier work
[2] = tested on: Legionella; settings: mouse, in vivo; cited from earlier work
[3] = tested on: TPA-induced erythema; settings: applied topically; cited from earlier work
[4] = tested on: human leukocytes; settings: cited from earlier work; for IFNγ synthesis: high concentrations (5-24µg/ml); for IFNγ production: low concentrations
[5] = tested on: mouse peritoneal macrophages activated by LPS and IFNγ; settings: cited from earlier work
[6] = biological target: CB2 (Homo sapiens, UniProt P34972); settings: cited from earlier work
Chain of CB2 (P34972 whole entry, species assumed): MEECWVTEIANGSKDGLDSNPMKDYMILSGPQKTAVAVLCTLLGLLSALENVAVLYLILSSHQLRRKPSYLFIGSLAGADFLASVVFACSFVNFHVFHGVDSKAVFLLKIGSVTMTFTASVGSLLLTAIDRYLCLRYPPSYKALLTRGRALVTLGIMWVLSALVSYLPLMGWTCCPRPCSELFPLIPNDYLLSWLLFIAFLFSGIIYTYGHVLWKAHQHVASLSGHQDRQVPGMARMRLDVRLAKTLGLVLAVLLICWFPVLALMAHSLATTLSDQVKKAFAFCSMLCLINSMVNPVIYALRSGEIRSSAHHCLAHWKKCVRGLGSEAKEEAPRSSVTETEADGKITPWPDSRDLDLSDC

[7] = tested on: mRNA of IL-1, IL-6 and TNFα; settings: BALB/C mice injected with cannabidiol; cited from earlier work
[8] = in vivo; cited from earlier work
[9] = tested on: mouse experimental model of multiple sclerosis; assay: inhibition of spasticity in a mouse experimental model of multiple sclerosis; format: in vivo; settings: for spasticity (limb stiffness assessed by the force required to bend the limb): ***P<0.001 compared to baseline
Description: FIG. 7 illustrates cannabinoid-mediated inhibition of spasticity in a mouse experimental model of multiple sclerosis^35. Compounds were injected intravenously (i.v.) and the level of THC (1 mg/kg i.v.) was matched to the THC content in a cannabis extract (obtained under UK Home Office Licence). […] Nabilone (1 mg/kg i.v.) a synthetic analogue of THC (generously supplied by Cambridge Biomedicals, Cesamet) could inhibit spasticity to maximal levels (˜45-50% inhibition). Mean change compared to baseline (n=10/group)

[10] = tested on: levadopa-induced dyskinesia in Parkinson's disease; settings: in vivo; cited from earlier work
[11] = tested on: people with chronic pain; settings: oral; chronic pain (n=60), those with MS; cited from earlier work
[12] = tested on: tics in Tourette's syndrome; settings: oral; cited from earlier work
[13] = biological target: CB1 receptors (Homo sapiens, UniProt P21554); settings: cited from earlier work
Chain of CB1 receptors (P21554 whole entry): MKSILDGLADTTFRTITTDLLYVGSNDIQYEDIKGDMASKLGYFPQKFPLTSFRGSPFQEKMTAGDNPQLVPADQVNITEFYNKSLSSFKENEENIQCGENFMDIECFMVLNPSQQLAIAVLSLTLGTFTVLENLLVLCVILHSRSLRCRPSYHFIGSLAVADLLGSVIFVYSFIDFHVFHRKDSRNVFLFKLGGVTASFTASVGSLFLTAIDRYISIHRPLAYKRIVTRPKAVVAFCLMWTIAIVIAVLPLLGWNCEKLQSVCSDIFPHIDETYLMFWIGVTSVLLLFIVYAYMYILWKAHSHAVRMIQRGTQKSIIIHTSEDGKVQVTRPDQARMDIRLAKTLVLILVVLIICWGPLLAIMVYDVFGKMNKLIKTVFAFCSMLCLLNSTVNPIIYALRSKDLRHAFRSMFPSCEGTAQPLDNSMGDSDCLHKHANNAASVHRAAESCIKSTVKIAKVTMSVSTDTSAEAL

[14] = tested on: NMDA receptor; settings: cited from earlier work
[15] = tested on: head trauma; settings: phase II; cited from earlier work
[16] = tested on: MS patients; settings: within one month after initiation of treatment; cited from earlier work

For `C=C(C)[C@@H]1CCC(C)=C[C@H]1c1c(O)cc(CCCCC)cc1O` [Cannabidiol], the PBQ-induced writhing [1] is listed as “inhibited”, the mortality [2] is listed as “not affected” and the TPA-induced erythema [3] is listed as “reduce”. The IL-1 production [4] was “decreased”, the IL-2 secretion [4] was “did not affect” and the TNFα production [4] was “decreased”. The IFNγ synthesis [4] was “completely blocked”, the IFNγ production [4] was “increase” and the “nitric oxide (NO) production” value [5] was “inhibited”. For the same molecule, the “binding to CB2 receptor” value [6] was “does not bind”, the “level of mRNA of IL-1, IL-6 and TNFα” value [7] was “did not show significant change” and the psychoactivity [8] was “no psychotropic”.

In the case of `CCCCCCC(C)(C)c1cc(O)c2c(c1)OC(C)(C)C1CCC(=O)CC21` (stereo not drawn) [Nabilone], the inhibition at 1 mg/kg ([9]; Mus musculus, iv, 1 mg/kg i.v., mean change compared to baseline, maximal levels) is listed as 45 to 50%, the levadopa-induced dyskinesia [10] is listed as “inhibit” and the “MS patients reporting some analgesic effect” value [11] is listed as “six of 16”.

For `CCCCCc1cc(O)c2c(c1)OC(C)(C)[C@@H]1CCC(C)=C[C@@H]21` [THC, delta 9 tetrahydrocannabinol], the “inhibition of spasticity” value ([9]; THC 1 mg/kg i.v.) is listed as “capacity to induce maximal inhibition of spasticity”, the IFNγ synthesis [4] is listed as “completely blocked” and the IFNγ production [4] is listed as “increase”. For the same molecule, the “nitric oxide (NO) production” value [5] was “inhibited” and the tics [12] was “can inhibit tics”.

In the case of `CCCCCCC(C)(C)c1cc(O)c2c(c1)OC(C)(C)[C@@H]1CC=C(C(=O)O)C[C@@H]21` [ajulemic acid], the “direct stimulation of CB1 receptors” value [13] is given as “does not directly stimulate CB1 receptors to a significant extent”, the “spasticity (limb stiffness assessed by the force required to bend the limb)” value [9] is given as “inhibits spasticity” and the “spasticity (limb stiffness assessed by the force required to bend the limb)” value ([9]; listed as Ajulemic acid) is given as “anti-spastic”. The cannabimimetic effects [8] was “dose not induce cannabimimetic effects”.

In the case of `CCCCCCC(C)(C)c1cc(O)c2c(c1)OC(C)(C)[C@H]1CC=C(CO)C[C@H]21` [dexanabinol], the NMDA receptor activity [14] is listed as “NMDA receptor antagonist” and the “efficacy in head trauma” value [15] is listed as “some efficacy”.

B1: IFN-.gamma.: cytokine administered in attempts to alleviate the symptoms of MS (protein, UniProt P01579 24-161, looked up)
Interferon gamma: QDPYVKEAENLKKYFNAGHSDVADNGTLFLGILKNWKEESDRKIMQSQIVSFYFKLFKNFKDDQSIQKSVETIKEDMNVKFFNSNKKKRDDFEKLTNYSVTDLNVQRKAIHELIQVMAELSPAAKTGKRKRSQMLFRG
In the case of B1, the “patients with clinical exacerbation” value [16] is listed as 7 of 18.
